Here are results for six compounds from patent US20260184663A1, “INDENE COMPOUNDS, PHARMACEUTICAL COMPOSITIONS THEREOF, AND THEIR THERAPEUTIC APPLICATIONS” (NucMito Pharmaceuticals co. Ltd., priority 2022, published 2026).

What all share (assay type): cell-based
In one assay the test system is HepG2 (liver cancer). As to the kind of experiment: Antiproliferative activity (CCK-8 cell viability), HepG2. The conditions noted are these: Homo sapiens, 72 h; for inhibition at 3.3 µM: Compound concentration: 3.3 μM; for inhibition at 3.3 µM / inhibition at 10 µM: read-out: Antiproliferative activity in cancerous cells, HepG2 (inhibition of cell growth); for inhibition at 10 µM: Compound concentration: 10 μM; for inhibition at 30 µM: Compound concentration: 30 μM, read-out: Antiproliferative activity in cancerous cells, HepG2. In outline: (§1)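 Growth inhibition graded in bands from percent viability against DMSO vehicle, read as CCK-8 absorbance at 450 nm. Compound tested at 3.3, 10 or 30 μM for 72 h, 37 °C; media contained 10% FBS: DMEM for HepG2/SW480, MEM for HeLa, F-12K for A549.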

Assay [1] relates to A549 (lung adenocarcinoma). As to the kind of experiment: Antiproliferative activity (CCK-8 cell viability), A549. The following applies: Homo sapiens, 72 h; for inhibition at 3.3 µM: Compound concentration: 3.3 μM; for inhibition at 3.3 µM / inhibition at 10 µM: read-out: Antiproliferative activity in cancerous cells, A549 (inhibition of cell growth); for inhibition at 10 µM: Compound concentration: 10 μM; for inhibition at 30 µM: Compound concentration: 30 μM, read-out: Antiproliferative activity in cancerous cells, A549. In outline: as §1

The test system of assay [2] is A431 (epidermoid carcinoma). As to the kind of experiment: Antiproliferative activity (CCK-8 cell viability), A431. The conditions noted are these: Homo sapiens, 72 h, read-out: Antiproliferative activity in cancerous cells, A431 (inhibition of cell growth); for inhibition at 3.3 µM: A-431, Compound concentration: 3.3 μM; for inhibition at 10 µM: A-431, Compound concentration: 10 μM. A digest of the protocol:
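This growth inhibition assay used A431 cells maintained in Dulbecco's modified Eagle's medium plus 10% fetal bovine serum. Cells were seeded in 96-well plates, treated with compound for 72 h at 37° C., and then given 10 μL CCK-8 solution. After a further 4 h, absorbance was read at 450 nm.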

The subject of another assay is SW480 (colon cancer). As to the kind of experiment: Antiproliferative activity (CCK-8 cell viability), SW480. The conditions noted are these: Homo sapiens, 72 h; for inhibition at 3.3 µM: Compound concentration: 3.3 μM; for inhibition at 3.3 µM / inhibition at 10 µM: read-out: Antiproliferative activity in cancerous cells, SW480 (inhibition of cell growth); for inhibition at 10 µM: Compound concentration: 10 μM. A digest of the protocol: as §1

A further assay concerns HeLa (cervical cancer). As to the kind of experiment: Antiproliferative activity (CCK-8 cell viability), HeLa. The conditions noted are these: Homo sapiens, 72 h; for inhibition at 3.3 µM: Compound concentration: 3.3 μM; for inhibition at 3.3 µM / inhibition at 10 µM: read-out: Antiproliferative activity in cancerous cells, HELA (inhibition of cell growth); for inhibition at 10 µM: Compound concentration: 10 μM; for inhibition at 30 µM: Compound concentration: 30 μM, read-out: Antiproliferative activity in cancerous cells, HELA. In outline: as §1

Assay [3] relates to MDA-MB-231 (breast cancer). As to the kind of experiment: Antiproliferative activity (CCK-8 cell viability), MDA-MB-231. The following applies: Homo sapiens, 72 h; for inhibition at 3.3 µM: Compound concentration: 3.3 μM; for inhibition at 3.3 µM / inhibition at 10 µM: read-out: Antiproliferative activity in cancerous cells, MDA-MB-231 (inhibition of cell growth); for inhibition at 10 µM: Compound concentration: 10 μM. A digest of the protocol: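 Growth inhibition of human MDA-MB-231 breast cancer cells was assessed with a Cell Counting Kit-8. Cells cultured in DMEM plus 10% FBS were seeded at 2,000-5,000 cells/well, treated after attachment, and kept 72 h at 37° C. CCK-8 solution (10 μL) was added for 4 h, and absorbance at 450 nm was compared with DMSO-treated controls.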

In assay [4] the test system is alpha-smooth muscle actin (α-SMA). As to the kind of experiment: Inhibition of TGF-β induced expression of alpha-smooth muscle actin (α-SMA) in CFSC cells (western blot). The following applies: compound at 10 μM, TGF-β (10 ng/mL), 24 hours, band intensity vs TGF-β only. In outline:
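CFSC hepatic stellate cells in serum-free DMEM treated 24 h at 37 °C with compound at 10 μM plus TGF-β (10 ng/mL). α-SMA measured by Western blot with β-actin, ECL detection, densitometry. Percent inhibition is decrease in band intensity versus TGF-β-only cells.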

Assay [5] relates to B16F10 (malignant melanoma). As to the kind of experiment: Antiproliferative activity (CCK-8 cell viability), B16F10. The following applies: Mus musculus, 72 h, read-out: Antiproliferative activity in cancerous cells, B16F10 (inhibition of cell growth); for inhibition at 3.3 µM: B16-F10, Compound concentration: 3.3 μM; for inhibition at 10 µM: B16-F10, Compound concentration: 10 μM. In outline:
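Cell growth inhibition was measured in B16F10 malignant melanoma cells with a Cell Counting Kit-8 viability assay. Cells were maintained in DMEM plus 10% fetal bovine serum, seeded at 2,000-5,000 cells/well in 96-well plates, and treated for 72 h at 37° C. Viability was expressed relative to DMSO-treated vehicle control wells.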

Where only a bound is given, the exact number is not on record here.

For `O=C(O)CC1=C/C(=C/c2ccc(COc3ccccc3)cc2)c2ccc(F)cc21` [B3, (Z)-2-(5-Fluoro-1-(4-(phenoxymethyl)benzylidene)-1H-inden-3-yl)acetic acid], the inhibition at 3.3 µM with HepG2 (liver cancer) is 30 to 50%; in assay [1], 30 to 50%; in assay [2] it was under 30%; in the assay on SW480 (colon cancer), under 30%; in the assay with HeLa (cervical cancer), under 30%; in assay [3], at least 50%. Moreover, in assay [5], the inhibition at 3.3 µM was at least 50%. Besides, the inhibition at 10 µM was 30 to 50% in the assay with HepG2 (liver cancer); at least 50% in assay [1]; 30 to 50% in assay [2]; 30 to 50% in the assay on SW480 (colon cancer); under 30% in the assay on HeLa (cervical cancer); at least 50% in assay [3]. Moreover, the inhibition at 10 µM in assay [4] is over 80%; in assay [5], at least 50%. The inhibition at 30 µM was under 30% in the assay with HepG2 (liver cancer), 30 to 50% in assay [1] and under 30% with HeLa (cervical cancer).

As to `COc1ccc(/C=C2/C(Cc3ccc(Oc4ccc(F)cc4)cc3)=C(CC(=O)O)c3cc(F)ccc32)cc1` [A110, (Z)-2-(5-Fluoro-2-(4-(4-fluorophenoxy)benzyl)-1-(4-methoxybenzylidene)-1H-inden-3-yl)acetic acid], the inhibition at 3.3 µM with HepG2 (liver cancer) is under 30%; in assay [1] it was under 30%; in assay [2], under 30%; with SW480 (colon cancer) it was under 30%; with HeLa (cervical cancer), under 30%; in assay [3], at least 50%. For the same compound, the inhibition at 3.3 µM in assay [5] was under 30%. Also, the inhibition at 10 µM in the assay with HepG2 (liver cancer) is under 30%; in assay [1] it was at least 50%; in assay [2], at least 50%; in the assay on SW480 (colon cancer) it was at least 50%; in the assay on HeLa (cervical cancer) it was at least 50%; in assay [3], at least 50%. Also, the inhibition at 10 µM in assay [4] is over 80%; in assay [5] it was at least 50%.

Regarding `CC1=C(CC(=O)O)c2c(F)cccc2/C1=C\c1ccc(Oc2ccc(F)cc2)cc1` [C9, (Z)-2-(4-Fluoro-1-(4-(4-fluorophenoxy)benzylidene)-2-methyl-1H-inden-3-yl)-acetic acid], the inhibition at 3.3 µM in the assay on HepG2 (liver cancer) was 30 to 50%; in assay [1], under 30%; in assay [2] it was 30 to 50%; in the assay on SW480 (colon cancer), under 30%; in the assay with HeLa (cervical cancer), under 30%; in assay [3], 30 to 50%. In addition, the inhibition at 3.3 µM in assay [5] is at least 50%. Moreover, the inhibition at 10 µM in the assay with HepG2 (liver cancer) was under 30%; in assay [1], under 30%; in assay [2], 30 to 50%; in the assay with SW480 (colon cancer), under 30%; in the assay on HeLa (cervical cancer), under 30%; in assay [3] it was 30 to 50%. Also, the inhibition at 10 µM is under 30% in assay [4] and at least 50% in assay [5]. Moreover, the inhibition at 30 µM is 30 to 50% with HepG2 (liver cancer); under 30% in assay [1]; under 30% with SW480 (colon cancer) (Compound concentration: 30 μM, read-out: Antiproliferative activity in cancerous cells, SW480); under 30% in the assay on HeLa (cervical cancer); 30 to 50% in assay [3] (Compound concentration: 30 μM, read-out: Antiproliferative activity in cancerous cells, MDA-MB-231).

On to `CCCC1=C(CC(=O)O)c2cc(F)ccc2/C1=C\c1cccc(Oc2ccccc2)c1` [C22, (Z)-2-(5-Fluoro-1-(3-phenoxybenzylidene)-2-propyl-1H-inden-3-yl)acetic acid], for which the inhibition at 3.3 µM in the assay with HepG2 (liver cancer) was under 30%; in assay [1] it was at least 50%; in assay [2] it was under 30%; with SW480 (colon cancer) it was under 30%; in the assay on HeLa (cervical cancer) it was under 30%; in assay [3], at least 50%. Moreover, in assay [5], the inhibition at 3.3 µM lay in the range of 30 to 50%. The inhibition at 10 µM was at least 50% in the assay on HepG2 (liver cancer); at least 50% in assay [1]; at least 50% in assay [2]; 30 to 50% with SW480 (colon cancer); at least 50% in the assay with HeLa (cervical cancer); at least 50% in assay [3]. In addition, the inhibition at 10 µM in assay [4] is over 80%; in assay [5], at least 50%.

As for `CC1=C(CC(=O)O)c2cc(F)ccc2/C1=C\c1cccc(COc2cccc(C(C)(C)C)c2)c1` [B21, (Z)-2-(1-(3-((3-(Tert-butyl)phenoxy)methyl)benzylidene)-5-fluoro-2-methyl-1H-inden-3-yl)acetic acid], the inhibition at 3.3 µM with HepG2 (liver cancer) was under 30%; in assay [1], under 30%; in assay [2], under 30%; in the assay on SW480 (colon cancer) it was under 30%; in the assay with HeLa (cervical cancer), under 30%; in assay [3], at least 50%. The inhibition at 3.3 µM in assay [5] is under 30%. Besides, the inhibition at 10 µM with HepG2 (liver cancer) is 30 to 50%; in assay [1], at least 50%; in assay [2], 30 to 50%; in the assay with SW480 (colon cancer), 30 to 50%; with HeLa (cervical cancer), at least 50%; in assay [3] it was at least 50%. Besides, the inhibition at 10 µM in assay [4] was over 80%; in assay [5] it was at least 50%.

Consider `CCc1ccc2c(c1)C(CC(=O)O)=C(C)/C2=C/c1ccc(Oc2ccc(F)cc2)cc1` [C5, (Z)-2-(5-Ethyl-1-(4-(4-fluorophenoxy)benzylidene)-2-methyl-1H-inden-3-yl)-acetic acid], for which the inhibition at 3.3 µM is at least 50% in the assay with HepG2 (liver cancer); 30 to 50% in assay [1]; at least 50% in assay [2]; under 30% in the assay on SW480 (colon cancer); under 30% in the assay with HeLa (cervical cancer); under 30% in assay [3]. In addition, in assay [5], the inhibition at 3.3 µM was under 30%. In addition, the inhibition at 10 µM in the assay on HepG2 (liver cancer) was at least 50%; in assay [1] it was 30 to 50%; in assay [2], at least 50%; with SW480 (colon cancer) it was under 30%; in the assay with HeLa (cervical cancer) it was at least 50%; in assay [3], at least 50%. Also, the figures for the inhibition at 10 µM in assay [4] and in assay [5] were over 80% and at least 50%, respectively.
